Like-named read-outs stand apart in the source and are kept apart here. Square brackets hold non-standard residues; d marks the D form. Peptide text beside a SMILES is read from it. * marks the point of attachment. Dolaproine = CO[C@@H]([C@@H]1CCCN1)[C@@H](C)C(=O)O; Phe(βS-OH) = N[C@H](C(=O)O)[C@@H](O)c1ccccc1; Dil = CC[C@H](C)[C@H](NC)[C@@H](CC(=O)O)OC; X1 = CC(C)[C@@H](C(=O)*)N(C)CCS; X2 = CSCCN(C)[C@H](C(=O)*)C(C)C
What was measured:
Assay type in all cases: cell-based
JMT-1 = assay: In vitro cytotoxicity (CCK-8) in JMT-1 cells; details: Homo sapiens, JMT-1 cell line, 120 hours incubation
Description: (§1) Cytotoxic potencies of the compounds are assessed in flat-bottomed 96-well cell culture plates (Corning Costar) using cell counting Kit-8 (CCK-8) assay (Shanghai Life Lab Biotech Co., Ltd.). Briefly, human tumor cells (1,000-10,000 cells/well, depending on the cell line), in the appropriate culture medium are incubated, with the compounds, or with conjugates in the presence or absence of an excess of the corresponding unconjugated antibodies, for 120 hours, at 37° C., 5% CO2.
(§2) Dispensed 175 μL cell suspension in 96-well plate at 1500 cells per well and incubate for 24 hours in a humidified incubator (37° C., 5% CO2). Added 25 μL various concentrations of compound as a 5× solution into the cell culture medium (Fetal bovine serum, Invitrogen) in the plate and incubated for 120 hours in the incubator. Thawed CCK-8 on the bench top or in a 37° C. water bath, added 10 μL of CCK-8 to each well of the incubated plate (be careful not introducing air bubbles into the wells since they would interfere with the O. D. reading) and then further incubated for 1-4 hours in the incubator. Measured the absorbance at 450 nm using a SpectraMax i3x Microplate Reader and calculated the cell inhibition rate. The IC50 curves were generated along with the IC50 values by using GraphPad Prism software.

NCI-N87 = assay: In vitro cytotoxicity (CCK-8) in NCI-N87 cells; details: Homo sapiens, NCI-N87 cell line, 120 hours incubation
Description: as §1, §2

SK-BR-3 = assay: In vitro cytotoxicity (CCK-8) in SK-BR-3 cells; details: Homo sapiens, SK-BR-3 cell line, 120 hours incubation
Description: as §1, §2

HCC 827 = assay: In vitro cytotoxicity (CCK-8) in HCC 827 cells; details: Homo sapiens
Description: as §1, §2

OVCAR-3 = assay: In vitro cytotoxicity (CCK-8) in OVCAR-3 cells; details: Homo sapiens
Description: as §1, §2

BR 474 = assay: In vitro cytotoxicity (CCK-8) in BR 474 cells; details: Homo sapiens, BR 474 cell line, 120 hours incubation
Description: as §1, §2

NCI-H2110 = assay: In vitro cytotoxicity (CCK-8) in NCI-H2110 cells; details: Homo sapiens
Description: as §1, §2

SK-OV-3 = assay: In vitro cytotoxicity (CCK-8) in SK-OV-3 cells; details: Homo sapiens
Description: as §1, §2

[1] = HCC827, HCC 827 cell line, 120 hours incubation, CCK-8, read-out: IC50
[2] = OVCAR-3 cell line, 120 hours incubation, CCK-8, read-out: IC50
[3] = NCI-H2110 cell line, 120 hours incubation, CCK-8, read-out: IC50
[4] = SK-OV-3 cell line, 120 hours incubation, CCK-8, read-out: IC50

Row | SMILES | IC50 (JMT-1) [nM] | IC50 (NCI-N87) [nM] | IC50 (SK-BR-3) [nM] | IC50 (HCC 827; [1]) [nM] | IC50 (OVCAR-3; [2]) [nM] | IC50 (BR 474) [nM] | IC50 (NCI-H2110; [3]) [nM] | IC50 (SK-OV-3; [4]) [nM] | IC50 (HCC 827; HCC827, 120 h) [nM] | IC50 (OVCAR-3; OVCAR-3, 120 h) [nM] | IC50 (NCI-H2110; NCI-H2110, 120 h) [nM] | IC50 (SK-OV-3; SK-OV-3, 120 h) [nM]
1 | CC[C@@]1(O)C(=O)OCc2c1cc1n(c2=O)Cc2cc3c(CCCCO)c(C)c(F)cc3nc2-1 | 14 | 2.6 | 0.014 | 0.78 | 0.1 | > 1000 | 0.85 | 0.36 | – | – | – | –
2 | CC[C@@]1(O)C(=O)OCc2c1cc1n(c2=O)Cc2c-1nc1cc(F)c(C)c3c1c2[C@@H](NC(=O)CO)CC3 | – | – | – | – | – | – | – | – | 1.8 | 0.2 | 4.1 | 3.6
3 | CC[C@H](C)[C@@H]([C@@H](CC(=O)N1CCC[C@H]1[C@H](OC)[C@@H](C)C(=O)N[C@H](C(=O)O)[C@@H](O)c1ccccc1)OC)N(C)C(=O)[C@@H](NC(=O)[C@H](C(C)C)N(C)CCSC)C(C)C (X2-V[Dil][Dolaproine][Phe(βS-OH)]-OH) | 36.1 | 32.3 | 13.6 | – | – | – | – | – | – | – | – | –
4 | CC[C@H](C)[C@@H]([C@@H](CC(=O)N1CCC[C@H]1[C@H](OC)[C@@H](C)C(=O)N[C@H](C)[C@@H](O)c1ccccc1)OC)N(C)C(=O)[C@@H](NC(=O)[C@H](C(C)C)N(C)CCSC)C(C)C | 0.49 | 0.94 | 0.41 | – | – | – | – | – | – | – | – | –
5 | CC[C@H](C)[C@@H]([C@@H](CC(=O)N1CCC[C@H]1[C@H](OC)[C@@H](C)C(=O)N[C@H](C)[C@@H](O)c1ccccc1)OC)N(C)C(=O)[C@@H](NC(=O)[C@H](C(C)C)N(C)CCS)C(C)C | 2.1 | 4.8 | 1.7 | – | – | 5.1 | 10 | 7.7 | – | – | – | –
6 | CC[C@H](C)[C@@H]([C@@H](CC(=O)N1CCC[C@H]1[C@H](OC)[C@@H](C)C(=O)N[C@H](C(=O)O)[C@@H](O)c1ccccc1)OC)N(C)C(=O)[C@@H](NC(=O)[C@H](C(C)C)N(C)CCS)C(C)C (X1-V[Dil][Dolaproine][Phe(βS-OH)]-OH) | – | – | – | 108 | 67.6 | – | 12 | 38 | – | – | – | –
